What was measured:
physchem = details: pH 7.4, elog D, HPLC measured log D, pH 7.4
in vitro [1] = details: human, microsomes, intrinsic in vitro clearance, liver microsomes
[2] = system: primary peritoneal mouse macrophages (PMM); assay: cells; details: Macrophage, read-out: PMM pIC50 (converted)
in vitro [3] = details: mouse, microsomes, intrinsic in vitro clearance, liver microsomes
[4] = system: Leishmania infantum MHOM/MA(BE)/67/ITMAP263 intracellular amastigotes; assay: microbe, parasite or virus in culture; details: Macrophage, in Mus musculus, read-out: L. inf. pIC50, intracellular amastigotes in PMM (converted), geometric mean of a minimum of two experiments ± standard error
[5] = HPLC, Ascentis Express RP Amide column
[6] = pH 7.4, Microsome Clint,u Human, Table 2
[7] = pH 7.4, Microsome Clint,u Mouse, Table 2

Structure (SMILES)	chromatographic logD (physchem; [5])	microsomal CLint at 0.5 μM (in vitro [1]; pH 7.4, Microsome Clint Human)	IC50 [2]	microsomal CLint at 0.5 μM (in vitro [3]; pH 7.4, Microsome Clint Mouse)	IC50 [4]	microsomal CLint at 0.5 h, 0.5 µM (in vitro [1]; pH 7.4, Microsome Clint Human)	microsomal CLint at 0.5 h, 0.5 µM (in vitro [3]; pH 7.4, Microsome Clint Mouse)	chromatographic logD (physchem)	microsomal CLint at 0.5 h, 0.5 µM (in vitro [1]; [6])	microsomal CLint at 0.5 h, 0.5 µM (in vitro [3]; [7])
COc1ccc(OC)c(S(=O)(=O)N(Cc2ccccc2)Cc2ccccc2)c1 [Compound 9]	4.6	242 µL/min/mg	> 64.6 µM	1300 µL/min/mg	0.372 µM	–	–	–	–	–
COc1ccc(S(=O)(=O)N(Cc2ccccc2)Cc2ccccc2)cc1 [Compound 11]	4.7	184 µL/min/mg	> 64.6 µM	2410 µL/min/mg	45.7 µM	–	–	–	–	–
CS(=O)(=O)c1ccccc1S(=O)(=O)N(Cc1ccccc1)Cc1ccccc1 [Compound 14]	4	–	> 64.6 µM	–	32.4 µM	417 µL/min/mg	2880 µL/min/mg	–	–	–
O=S(=O)(c1ccccc1OC(F)(F)F)N(Cc1ccccc1)Cc1ccccc1 [Compound 15]	5.1	–	> 64.6 µM	689 µL/min/mg	1.1 µM	92.9 µL/min/mg	–	–	–	–
N#Cc1ccc(O)c(S(=O)(=O)N(Cc2ccc(F)cc2)Cc2ccc(F)cc2)c1 [Compound 16]	3.7	–	45.7 µM	–	30.9 µM	27.4 µL/min/mg	1100 µL/min/mg	–	–	–
COc1ccc(C(=O)O)cc1S(=O)(=O)N(Cc1ccccc1)Cc1ccccc1 [Compound 20]	2.5	< 23 µL/min/mg	> 64.6 µM	–	57.5 µM	–	94 µL/min/mg	–	–	–
COc1ccc(C(N)=O)cc1S(=O)(=O)N(Cc1ccccc1)Cc1ccccc1 [Compound 21]	3.6	108 µL/min/mg	> 64.6 µM	1670 µL/min/mg	7.41 µM	–	–	–	–	–
COc1ccc(C(=O)N2CCOCC2)cc1S(=O)(=O)N(Cc1ccccc1)Cc1ccccc1 [Compound 22]	3.8	810 µL/min/mg	45.7 µM	–	0.457 µM	–	2020 µL/min/mg	–	–	–
COc1ccc(N2CCOCC2)cc1S(=O)(=O)N(Cc1ccc(F)cc1)Cc1ccc(F)cc1 [Compound 25]	4.2	–	> 64.6 µM	–	0.324 µM	421 µL/min/mg	1400 µL/min/mg	–	–	–
COc1ccc(S(N)(=O)=O)cc1S(=O)(=O)N(Cc1ccccc1)Cc1ccccc1 [Compound 27]	3.6	–	> 64.6 µM	–	0.562 µM	94.1 µL/min/mg	884 µL/min/mg	–	–	–
COc1ccc([S+](C)[O-])cc1S(=O)(=O)N(Cc1ccccc1)Cc1ccccc1 (stereo not drawn) [Compound 28]	3.5	–	> 64.6 µM	–	0.589 µM	233 µL/min/mg	929 µL/min/mg	–	–	–
COc1ncccc1S(=O)(=O)N(Cc1ccccc1)Cc1ccccc1 [Compound 30]	–	849 µL/min/mg	> 64 µM	–	0.646 µM	–	2570 µL/min/mg	4.3	–	–
Cn1cccc(S(=O)(=O)N(Cc2ccc(F)cc2)Cc2ccc(F)cc2)c1=O [Compound 31]	–	–	> 64 µM	–	20.9 µM	676 µL/min/mg	2450 µL/min/mg	3.7	–	–
COc1ccc(OC)c(S(=O)(=O)N(Cc2ccc(F)cc2)c2ccc(F)cc2)c1 [Compound 33]	4.3	–	> 64.6 µM	–	11.5 µM	–	–	–	482 µL/min/mg	1560 µL/min/mg
COc1ccc(OC)c(S(=O)(=O)N(Cc2ccc(F)cc2)Cc2cnc(OC)nc2OC)c1 [Compound 34]	3.8	–	> 64.6 µM	–	53.7 µM	–	–	–	498 µL/min/mg	3150 µL/min/mg
